According to ChEMBL document CHEMBL5579834 (Eur J Med Chem, 2024):

How the values were obtained:
[1] = Cytotoxicity against HEK293T cells assessed as reduction in cell viability measured after 48 hrs by MTT assay; assay type: toxicity, cell-based, HEK-293T; conditions: human
[2] = Half-life in rat whole blood at 500 ng/ml by LC-MS/MS analysis; assay type: ADME, tissue-based
[3] = Drug uptake in human skin fibroblast lysosomes assessed as fold change in corrected total cell fluorescence at 50 uM measured after 2 hrs by LysoTracker Red DND-99 dye based laser scanning confocal microscopy relative to control; assay type: ADME, subcellular, Lysosome

SMILES | CC50 at 48 h [1] [µM] | half-life at 500 ng/ml [2] [min] | fold change (FC) [3]
CN1CCN(CCCC(=O)O[C@H]2C(C)(C)[C@H]3CC[C@]2(C)C3)CC1 | > 775 | – | –
CC1(C)[C@H]2CC[C@](C)(C2)[C@H]1OC(=O)CN1CCOCC1 | 291 | – | –
CN1CCN(CC(=O)O[C@H]2C(C)(C)[C@H]3CC[C@]2(C)C3)CC1 | 645 | – | –
CCN1CCN(CCC(=O)O[C@H]2C(C)(C)[C@H]3CC[C@]2(C)C3)CC1 | 356 | – | –
CC1(C)[C@H]2CC[C@](C)(C2)[C@H]1OC(=O)CCCN1CCCCC1 | 458 | – | –
CC1(C)[C@@H]2CC[C@@]1(C)[C@@H](OC(=O)CCN1CCCCC1)C2 | – | 20 | –
CN1CCN(CCC(=O)O[C@H]2C(C)(C)[C@H]3CC[C@]2(C)C3)CC1 | 454 | – | 0.33
C[C@@H]1[C@H]2C[C@@H](C[C@H]1OC(=O)CCN1CCN(c3ccccc3)CC1)C2(C)C | 128 | – | –
C[C@@H]1[C@H]2C[C@@H](C[C@H]1OC(=O)CCCN1CCN(c3ccccc3)CC1)C2(C)C | 67 | – | –
C[C@@H]1[C@H]2C[C@@H](C[C@H]1OC(=O)CCN1CCN(C)CC1)C2(C)C | 318 | – | –
CCN1CCN(CCCC(=O)O[C@H]2C(C)(C)[C@H]3CC[C@]2(C)C3)CC1 | 404 | – | –
C[C@@H]1[C@H]2C[C@@H](C[C@H]1OC(=O)CN1CCN(C)CC1)C2(C)C | 628 | – | –
C[C@@H]1[C@H]2C[C@@H](C[C@H]1OC(=O)CN1CCN(c3ccccc3)CC1)C2(C)C | 59 | – | –
CC1CCN(CC(=O)O[C@H]2C(C)(C)[C@H]3CC[C@]2(C)C3)CC1 | 241 | – | –
CC1(C)[C@H]2CC[C@](C)(C2)[C@H]1OC(=O)CCCN1CCN(c2ccccc2)CC1 | 11 | – | –
CC1(C)[C@H]2CC[C@](C)(C2)[C@H]1OC(=O)CCN1CCN(c2ccccc2)CC1 | 21 | – | –

SMILES | CC50 at 48 h [1] [µM] | half-life at 500 ng/ml [2] [min] | fold change (FC) [3]
CCN1CCN(CC(=O)O[C@H]2C(C)(C)[C@H]3CC[C@]2(C)C3)CC1 | 907 | – | –
CC1(C)[C@H]2CC[C@](C)(C2)[C@H]1OC(=O)CN1CCCCC1 | 229 | – | 0.6
C[C@@H]1[C@H]2C[C@@H](C[C@H]1OC(=O)CCN1CCCCC1)C2(C)C | 334 | – | 0.37
CC1CCN(CCC(=O)O[C@H]2C(C)(C)[C@H]3CC[C@]2(C)C3)CC1 | 188 | – | –
CC1(C)[C@H]2CC[C@](C)(C2)[C@H]1OC(=O)CCCN1CCOCC1 | 261 | – | 0.56
CC1(C)[C@H]2CC[C@](C)(C2)[C@H]1OC(=O)CCN1CCCCC1 | 351 | – | 0.3
CC1(C)[C@H]2CC[C@](C)(C2)[C@H]1OC(=O)CN1CCN(c2ccccc2)CC1 | 101 | – | –
C[C@@H]1[C@H]2C[C@@H](C[C@H]1OC(=O)CCCN1CCN(C)CC1)C2(C)C | 164 | – | –
C[C@@H]1[C@H]2C[C@@H](C[C@H]1OC(=O)CN1CCOCC1)C2(C)C | 199 | – | 0.56
C[C@@H]1[C@H]2C[C@@H](C[C@H]1OC(=O)CCCN1CCCCC1)C2(C)C | 123 | – | –
C[C@@H]1[C@H]2C[C@@H](C[C@H]1OC(=O)CN1CCCCC1)C2(C)C | 314 | – | 0.46
C[C@@H]1[C@H]2C[C@@H](C[C@H]1OC(=O)CCN1CCOCC1)C2(C)C | 281 | – | 0.57
C[C@@H]1[C@H]2C[C@@H](C[C@H]1OC(=O)CCCN1CCOCC1)C2(C)C | 116 | – | –
CC1(C)[C@H]2CC[C@](C)(C2)[C@H]1OC(=O)CCN1CCOCC1 | 318 | – | –
CC1CCN(CCCC(=O)O[C@H]2C(C)(C)[C@H]3CC[C@]2(C)C3)CC1 | 130 | – | –
CN(C)CCOc1ccc(/C(=C(/CCCl)c2ccccc2)c2ccccc2)cc1 [TOREMIFENE] | 17 | – | –
